Experimental data as given in patent US5328902A, “7-(substituted)-9-[(substituted glycyl)amido]-6-demethyl-6-deoxytetracyclines” (American Cyanamid Co., priority 1992, dated 1994).

Legend:
E. coli J2175 = test: MIC, agar dilution; type: cell-based; details: E. coli J2175
E. faecalis ATCC 29212 = test: MIC, agar dilution; type: cell-based; details: E. faecalis ATCC 29212
S. aureus ROSE (MP) = test: MIC, agar dilution; type: cell-based; details: S. aureus ROSE (MP)
[1] = test system: S. aureus UBMS 90-1 Tet M; test: microbe, parasite or virus in culture; type: cell-based; details: S. aureus UBMS 90-1 Tet M
S. aureus IVES 1 983 = test: MIC, agar dilution; type: cell-based; details: S. aureus IVES 1 983
S. aureus UBMS 90-3 = test: MIC, agar dilution; type: cell-based; details: S. aureus UBMS 90-3
[2] = test system: E. coli MC 4100 TNIOC Tet B; test: microbe, parasite or virus in culture; type: cell-based; details: E. coli MC 4100 TNIOC Tet B
E. coli ATCC 25922 = test: MIC, agar dilution; type: cell-based; details: E. coli ATCC 25922
E. coli #311 (MP) = test: MIC, agar dilution; type: cell-based; details: E. coli #311 (MP)
S. mariescens FPOR 8733 = test: MIC, agar dilution; type: cell-based
[3] = test system: S. aureus UBMS 90-2 Tet M; test: microbe, parasite or virus in culture; type: cell-based; details: S. aureus UBMS 90-2 Tet M
[4] = test system: S. aureus UBMS 88-7 Tet K; test: microbe, parasite or virus in culture; type: cell-based; details: S. aureus UBMS 88-7 Tet K
[5] = test system: Wild Type S30 (wild type ribosomes, E. coli strain MRE600, tetracycline sensitive); test: E. coli in vitro protein translation system, wild type S30; details: for inhibition of protein synthesis occuring on wild type ribosomes: coupled transcription and translation system
[6] = test system: E. coli UBMS 89-2 Tet sens.; test: MIC, agar dilution; type: cell-based; details: E. coli UBMS 89-2 Tet sens.
[7] = test system: S. hemolyticus AVHAH 88-3; test: MIC, agar dilution; type: cell-based; details: S. hemolyticus AVHAH 88-3
Enterococcus 12201 = test: MIC, agar dilution; type: cell-based; details: Enterococcus 12201
[8] = test system: S. aureus UBMS 88-5 Tet M; test: microbe, parasite or virus in culture; type: cell-based; details: S. aureus UBMS 88-5 Tet M
the ribosome = test: Reversibility of binding: bacterial growth resumes after washing; type: cell-based; details: bacterial growth resumes when the compound is removed from the cultures by washing
Source text: Therefore, the ability of these compounds to inhibit bacterial growth appears to be a direct consequence of its ability to inhibit protein synthesis at the ribosome level.

S. aureus UBMS 88-4 = test: MIC, agar dilution; type: cell-based; details: S. aureus UBMS 88-4
E. coli J3272 Tet sens. = test: MIC, agar dilution; type: cell-based
E. coli PRP1 Tet A = test: microbe, parasite or virus in culture; type: cell-based; details: E. coli PRP1 Tet A
E. coli UBMS 90-5 = test: MIC, agar dilution; type: cell-based
E. coli J3272 Tet D = test: microbe, parasite or virus in culture; type: cell-based; details: E. coli J3272 Tet D
E. coli UBMS 90-4 Tet M = test: microbe, parasite or virus in culture; type: cell-based; details: E. coli UBMS 90-4 Tet M
S. aureus SMITH (MP) = test: MIC, agar dilution; type: cell-based; details: S. aureus SMITH (MP)
S. aureus ATCC 29213 = test: MIC, agar dilution; type: cell-based; details: S. aureus ATCC 29213
S. aureus IVES 2943 = test: MIC, agar dilution; type: cell-based; details: S. aureus IVES 2943
E. coli J3272 Tet C = test: microbe, parasite or virus in culture; type: cell-based; details: E. coli J3272 Tet C
E. coli BAJ9003 IMP MUT = test: microbe, parasite or virus in culture; type: cell-based; details: E. coli BAJ9003 IMP MUT
S. aureus NEMC 8769 = test: MIC, agar dilution; type: cell-based; details: S. aureus NEMC 8769
E. coli UBMS 89-1 Tet M = test: microbe, parasite or virus in culture; type: cell-based; details: E. coli UBMS 89-1 Tet M
[9] = test system: Ps. acruginosa ATCC 27853; test: MIC, agar dilution; type: cell-based; details: Ps. acruginosa ATCC 27853
E. coli UBMS 88-1 Tet B = test: microbe, parasite or virus in culture; type: cell-based; details: E. coli UBMS 88-1 Tet B; 18 hours at 35° C.

| Substance | MIC (E. coli J2175) | MIC (S. aureus ROSE (MP)) | MIC [1] | MIC (S. aureus IVES 1 983) | MIC (S. aureus UBMS 90-3) | MIC [2] | MIC (E. coli ATCC 25922) | MIC (E. coli #311 (MP)) | MIC (S. mariescens FPOR 8733) | MIC [3] | MIC [4] | % Inhibition Wild Type S30 ([5]; Conc. 0.06 mg/ml) | inhibition of protein synthesis occuring on wild type ribosomes [5] | MIC [6] | MIC [7] | MIC (Enterococcus 12201) | MIC [8] | reversibility of binding to the ribosome (the ribosome) | MIC (S. aureus UBMS 88-4) | MIC (E. coli J3272 Tet sens.) | other results |
| --- | --- | --- | --- | --- | --- | --- | --- | --- | --- | --- | --- | --- | --- | --- | --- | --- | --- | --- | --- | --- | --- |
| [4S-(4alpha,12aalpha)]-4,7-Bis(dimethylamino)-1,4,4a,5,5a,6,11,12a-octahydro-3,10, 12,12a-tetrahydroxy-9-[[[(3-methoxypropyl)amino]acetyl]amino]-1,11-dioxo-2-naphthacenecarboxamide dihydrochloride | 1 µg/mL | 16 µg/mL | 2 µg/mL | 16 µg/mL | 0.5 µg/mL | 2 µg/mL | 1 µg/mL | 1 µg/mL | 16 µg/mL | 0.5 µg/mL | 8 µg/mL | 88% | effectively inhibit protein synthesis | 1 µg/mL | 2 µg/mL | 0.5 µg/mL | 0.5 µg/mL | bind reversibly | 1 µg/mL | 1 µg/mL | MIC (E. faecalis ATCC 29212): 0.25 µg/mL; MIC (E. coli PRP1 Tet A): 4 µg/mL; MIC (E. coli UBMS 90-5): 1 µg/mL; MIC (E. coli J3272 Tet D): 0.5 µg/mL; MIC (E. coli UBMS 90-4 Tet M): 1 µg/mL; MIC (S. aureus SMITH (MP)): 0.5 µg/mL; MIC (S. aureus ATCC 29213): 1 µg/mL; MIC (S. aureus IVES 2943): 16 µg/mL; MIC (E. coli J3272 Tet C): 1 µg/mL; MIC (E. coli BAJ9003 IMP MUT): 0.12 µg/mL; MIC (S. aureus NEMC 8769): 0.25 µg/mL; MIC (E. coli UBMS 89-1 Tet M): 2 µg/mL; MIC [9]: 32 µg/mL |
| [4S-(4alpha,12aalpha)]-9-[[[(2,2-Diethoxyethyl)amino]acetyl]amino]-4,7-bis(dimethylamino)-1,4,4a,5,5a,6,11,12a-octahydro-3,10, 12,12a-tetrahydroxy-1,11-dioxo-2-naphthacenecarboxamide dihydrochloride [Compound C] | 8 µg/mL | 16 µg/mL | 1 µg/mL | 16 µg/mL | 0.5 µg/mL | 8 µg/mL | 8 µg/mL | 8 µg/mL | > 32 µg/mL | 1 µg/mL | 8 µg/mL | 88% | effectively inhibit protein synthesis | 8 µg/mL | 2 µg/mL | 1 µg/mL | 1 µg/mL | bind reversibly | 1 µg/mL | 8 µg/mL | MIC (E. faecalis ATCC 29212): 0.5 µg/mL; % Inhibition Wild Type S30 ([5]; Conc. 1.0 mg/ml): 98%; MIC (E. coli PRP1 Tet A): > 32 µg/mL; MIC (E. coli UBMS 90-5): 8 µg/mL; MIC (E. coli J3272 Tet D): 4 µg/mL; MIC (E. coli UBMS 90-4 Tet M): 4 µg/mL; MIC (S. aureus SMITH (MP)): 0.5 µg/mL; MIC (S. aureus ATCC 29213): 1 µg/mL; MIC (S. aureus IVES 2943): 8 µg/mL; MIC (E. coli J3272 Tet C): 16 µg/mL; MIC (E. coli BAJ9003 IMP MUT): 0.5 µg/mL; MIC (S. aureus NEMC 8769): 0.25 µg/mL; MIC (E. coli UBMS 89-1 Tet M): 4 µg/mL; MIC [9]: > 32 µg/mL; MIC (E. coli UBMS 88-1 Tet B): 16 µg/mL |
| [4S-(4alpha,12aalpha)]-4,7-Bis(dimethylamino-1,4,4a,5,5a,6,11,12a-octahydro-3,10, 12,12a-tetrahydroxy-9-[[[(2-(methoxyethyl)amino]acetyl]amino]-1,11-dioxo-2-naphthacenecarboxamide dihydrochloride | 2 µg/mL | 32 µg/mL | 2 µg/mL | 32 µg/mL | 0.5 µg/mL | 2 µg/mL | 2 µg/mL | 2 µg/mL | > 32 µg/mL | 0.5 µg/mL | 16 µg/mL | 92% | effectively inhibit protein synthesis | 2 µg/mL | 2 µg/mL | 0.5 µg/mL | 1 µg/mL | bind reversibly | 0.5 µg/mL | 2 µg/mL | % Inhibition Wild Type S30 ([5]; Conc. 1.0 mg/ml): 98%; MIC (E. coli PRP1 Tet A): 8 µg/mL; MIC (E. coli UBMS 90-5): 2 µg/mL; MIC (E. coli J3272 Tet D): 1 µg/mL; MIC (E. coli UBMS 90-4 Tet M): 2 µg/mL; MIC (S. aureus SMITH (MP)): 0.5 µg/mL; MIC (S. aureus ATCC 29213): 1 µg/mL; MIC (S. aureus IVES 2943): 32 µg/mL; MIC (E. coli J3272 Tet C): 4 µg/mL; MIC (S. aureus NEMC 8769): 0.5 µg/mL; MIC (E. coli UBMS 89-1 Tet M): 2 µg/mL; MIC [9]: > 32 µg/mL; MIC (E. coli UBMS 88-1 Tet B): 2 µg/mL |
